In ChEMBL document CHEMBL4616629, “Diosmin Treats Lipopolysaccharide-Induced Inflammatory Pain and Peritonitis by Blocking NF-κB Activation in Mice” (J Nat Prod, 2020):
Active and inactive are the calls of the source.

How the values were obtained:
Mus musculus [1] = test: (§1) Antiinflammatory activity against Swiss mouse model of LPS-induced peritonitis assessed as decrease in leukocyte recruitment in peritoneal cavity by measuring reduction in polymorphonuclear at 30 to 100 mg/kg, po pretreated for 1 hr followed by LPS-stimulation and measured after 3 hrs by light microscopic based Neubauer chamber cell counting method; format: functional, organism-based
Mus musculus [2] = test: Analgesic activity in Swiss mouse model of LPS-induced inflammatory pain assessed as reduction in thermal hyperalgesia at 30 to 100 mg/kg, po pretreated for 1 hr followed by LPS-stimulation and measured after 1 to 5 hrs by hot plate technique; format: functional, organism-based
Mus musculus [3] = test: Antioxidant activity in Swiss mouse model of LPS-induced inflammatory pain assessed as total ferric ion reducing activity in hind paw skin at mg/kg, po pretreated for 1 hr followed by LPS-stimulation and measured after 3 hrs by colorimetric based FRAP assay; format: functional, organism-based
Mus musculus [4] = test: Analgesic activity in LPS-induced Swiss mouse assessed as decrease in neutrophil recruitment in hind paw skin by measuring MPO activity at 10 to 100 mg/kg, po pretreated for 1 hr followed by LPS-stimulation and measured after 5 hrs by colorimetric assay; format: functional, organism-based
Mus musculus [5] = test: Analgesic activity in Swiss mouse model of LPS-induced inflammatory pain assessed as reduction in mechanical hyperalgesia at 30 to 100 mg/kg, po pretreated for 1 hr followed by LPS-stimulation and measured after 1 to 5 hrs by Von Frey test; format: functional, organism-based
Mus musculus [6] = test: Antiinflammatory activity against Swiss mouse model of LPS-induced inflammatory pain assessed as decrease in IL1beta level in peritoneal cavity at 30 mg/kg, po pretreated for 1 hr followed by LPS-stimulation and measured after 3 hrs by ELISA; format: functional, organism-based
Mus musculus [7] = test: Antiinflammatory activity against Swiss mouse model of LPS-induced inflammatory pain assessed as decrease in TNFalpha level in peritoneal cavity at 30 mg/kg, po pretreated for 1 hr followed by LPS-stimulation and measured after 3 hrs by ELISA; format: functional, organism-based
Mus musculus [8] = test: Antiinflammatory activity against Swiss mouse model of LPS-induced inflammatory pain assessed as decrease in TNFalpha level in hind paw skin at 30 mg/kg, po pretreated for 1 hr followed by LPS-stimulation and measured after 3 hrs by ELISA; format: functional, organism-based
Mus musculus [9] = test: as §1, with “mononuclear cells” for “polymorphonuclear”; format: functional, organism-based
Mus musculus [10] = test: (§2) Inhibition of NFkappaB in Swiss mouse peritoneal exudates model of LPS-induced inflammatory pain at 30 mg/kg, po pretreated for 1 hr followed by LPS-stimulation and measured after 3 hrs by Alexa Fluor 647 staining based immunofluorescence assay; format: organism-based
[11] = molecular target: Transcription factor p65 (Mus musculus) (UniProt Q04207); test: as §2, with “pain assessed as reduction area of colocalization between phosphorylated NFkappaB p65 and DAPI” for “pain”; format: organism-based
Mus musculus [12] = test: Antiinflammatory activity against Swiss mouse model of LPS-induced inflammatory pain assessed as decrease in IL6 level in hind paw skin at 30 mg/kg, po pretreated for 1 hr followed by LPS-stimulation and measured after 3 hrs by ELISA; format: functional, organism-based
Mus musculus [13] = test: as §1, with “total leukocytes” for “polymorphonuclear”; format: functional, organism-based
Mus musculus [14] = test: Antioxidant activity in Swiss mouse model of LPS-induced inflammatory pain assessed as increase in GSH level in hind paw skin at mg/kg, po pretreated for 1 hr followed by LPS-stimulation and measured after 3 hrs by colorimetric based assay; format: functional, organism-based
Mus musculus [15] = test: Antiinflammatory activity against Swiss mouse model of LPS-induced peritonitis assessed as decrease in superoxide anion production in peritoneal wash at 30 mg/kg, po pretreated for 1 hr followed by LPS-stimulation and measured after 3 hrs by NBT based spectrophotometric assay; format: functional, organism-based
Mus musculus [16] = test: Antioxidant activity in Swiss mouse model of LPS-induced inflammatory pain assessed as decrease in superoxide production in hind paw skin at mg/kg, po pretreated for 1 hr followed by LPS-stimulation and measured after 3 hrs by colorimetric based NBT assay; format: functional, organism-based
Mus musculus [17] = test: Antiinflammatory activity against Swiss mouse model of LPS-induced peritonitis assessed as decrease in total ROS level at 30 mg/kg, po pretreated for 1 hr followed by LPS-stimulation and measured after 3 hrs by H2DCF-DA staining based confocal microscopic method; format: functional, organism-based
Mus musculus [18] = test: Antiinflammatory activity against Swiss mouse model of LPS-induced inflammatory pain assessed as decrease in IL6 level in peritoneal cavity at 30 mg/kg, po pretreated for 1 hr followed by LPS-stimulation and measured after 3 hrs by ELISA; format: functional, organism-based
Mus musculus [19] = test: Analgesic activity in LPS-induced Swiss mouse assessed as increase in right/left paw ratio at 30 mg/kg, po pretreated for 1 hr followed by LPS-stimulation and measured after 1 to 5 hrs by static weight bearing assay; format: functional, organism-based
Mus musculus [20] = test: Antiinflammatory activity against Swiss mouse model of LPS-induced inflammatory pain assessed as decrease in IL1beta level in hind paw skin at 30 mg/kg, po pretreated for 1 hr followed by LPS-stimulation and measured after 3 hrs by ELISA; format: functional, organism-based
Mus musculus [21] = test: Antioxidant activity in Swiss mouse model of LPS-induced inflammatory pain assessed as reduction in lipid peroxidation in hind paw skin at mg/kg, po pretreated for 1 hr followed by LPS-stimulation and measured after 3 hrs by colorimetric based TBARS assay; format: functional, organism-based
Mus musculus [22] = test: Antioxidant activity in Swiss mouse model of LPS-induced inflammatory pain assessed as ABTS radical scavenging activity in hind paw skin at mg/kg, po pretreated for 1 hr followed by LPS-stimulation and measured after 3 hrs by colorimetric based assay; format: functional, organism-based
[23] = molecular target: Transcription factor p65 (Mus musculus) (UniProt Q04207); test: Inhibition of NFkappaB in Swiss mouse peritoneal exudates model of LPS-induced inflammatory pain assessed as ratio of phosphorylated NFkappaB p65 at (Ser536 residue) to total NFkappaB p65 at 30 mg/kg, po pretreated for 1 hr followed by LPS-stimulation and measured after 3 hrs by ELISA; format: organism-based
Mus musculus [24] = test: Analgesic activity in LPS-induced C57BL/6 mouse harboring LysM-eGFP assessed as decrease in neutrophil recruitment in hind paw skin by measuring fluorescence at 30 mg/kg, po pretreated for 1 hr followed by LPS-stimulation and measured after 5 hrs by confocal microscopic method; format: functional, organism-based
Mus musculus [25] = test: Antiinflammatory activity against Swiss mouse model of LPS-induced peritonitis assessed as decrease in NBT-positive leukocytes in peritoneal exudate at 30 mg/kg, po pretreated for 1 hr followed by LPS-stimulation and measured after 3 hrs by light microscopic based cell counting method; format: functional, organism-based

Sequence of Transcription factor p65 (Mus musculus) (Q04207 whole entry): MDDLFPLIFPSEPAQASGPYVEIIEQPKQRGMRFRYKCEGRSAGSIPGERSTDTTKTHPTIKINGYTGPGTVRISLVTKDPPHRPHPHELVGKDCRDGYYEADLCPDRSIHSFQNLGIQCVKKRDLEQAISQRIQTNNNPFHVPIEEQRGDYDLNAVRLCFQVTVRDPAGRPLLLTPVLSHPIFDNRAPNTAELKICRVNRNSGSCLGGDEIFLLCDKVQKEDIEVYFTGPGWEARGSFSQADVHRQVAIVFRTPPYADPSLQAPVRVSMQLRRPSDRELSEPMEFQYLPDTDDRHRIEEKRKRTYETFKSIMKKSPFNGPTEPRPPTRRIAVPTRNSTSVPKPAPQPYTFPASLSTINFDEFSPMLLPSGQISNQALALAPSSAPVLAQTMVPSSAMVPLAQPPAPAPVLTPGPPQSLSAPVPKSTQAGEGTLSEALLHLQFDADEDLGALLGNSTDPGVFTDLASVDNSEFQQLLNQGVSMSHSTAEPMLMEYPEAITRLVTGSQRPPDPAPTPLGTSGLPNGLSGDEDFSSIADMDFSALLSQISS

COc1ccc(-c2cc(=O)c3c(O)cc(O[C@@H]4O[C@H](CO[C@@H]5O[C@@H](C)[C@H](O)[C@@H](O)[C@H]5O)[C@@H](O)[C@H](O)[C@H]4O)cc3o2)cc1O
active: Activity (Mus musculus [1]) | Activity (Mus musculus [2]) | Activity (Mus musculus [3]) | Activity (Mus musculus [4]) | Activity (Mus musculus [5]) | Activity (Mus musculus [6]) | Activity (Mus musculus [7]) | Activity (Mus musculus [8]) | Activity (Mus musculus [9]) | inhibition (Mus musculus [10]) | inhibition [11] | Activity (Mus musculus [12]) | Activity (Mus musculus [13]) | Activity (Mus musculus [14]) | Activity (Mus musculus [15]) | Activity (Mus musculus [16]) | Activity (Mus musculus [17]) | Activity (Mus musculus [18]) | Activity (Mus musculus [19]) | Activity (Mus musculus [20]) | Activity (Mus musculus [21]) | Activity (Mus musculus [22]) | inhibition [23] | Activity (Mus musculus [24]) | Activity (Mus musculus [25])
